Laboratory results taken from the supplement of paper PMC10307832.

Legend:
Test in all cases: relative viability (nuclei count vs DMSO), 5 days (fraction); higher = more cells survive
[1] = compound: C1=CC=C(C(=C1)C2=CC=C(C=C2)C3=CSC4=C3C(=C(C(=O)N4)C#N)O)O + COc1cc2c(Oc3ccc(NC(=O)C4(C(=O)Nc5ccc(F)cc5)CC4)cc3F)ccnc2cc1OCCCN1CCOCC1 [Foretinib] (partner 0.25 µM)
Summary of the method: (§1)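 Medians of duplicate plates are given as relative viability. That measure is the nuclei count in treated wells divided by the count in vehicle wells. Counts were taken on 4× images of lung cancer cell lines in 1536-well plates, 5 days after pin-tool dosing the day after seeding with one drug alone or a fixed anchor-drug dose plus five library-drug doses (not always all listed) in √10 steps.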

[2] = compound: O=C(CCCCCCNC(=O)c1cnc(N(c2ccccc2)c2ccccc2)nc1)NO [Ricolinostat] + C[C@]1(O)C[C@@H](c2nc(-c3ccc4ccc(-c5ccccc5)nc4c3)c3c(N)nccn32)C1 [Linsitinib] (partner 1 µM)
Summary of the method: as §1

[3] = compound: C1=CC=C(C(=C1)C2=CC=C(C=C2)C3=CSC4=C3C(=C(C(=O)N4)C#N)O)O + C[C@]1(O)C[C@@H](c2nc(-c3ccc4ccc(-c5ccccc5)nc4c3)c3c(N)nccn32)C1 [Linsitinib] (partner 1 µM)
Summary of the method: as §1

[4] = compound: O=C(CCCCCCNC(=O)c1cnc(N(c2ccccc2)c2ccccc2)nc1)NO [Ricolinostat] + Cc1cc(Nc2cc(N3CCN(C)CC3)nc(Sc3ccc(NC(=O)C4CC4)cc3)n2)n[nH]1 [Tozasertib] (partner 0.1 µM)
Summary of the method: as §1

| Cell Line | relative viability ([1]; first compound 0.08 µM) | relative viability ([1]; first compound 0.253 µM) | relative viability ([1]; first compound 0.8 µM) | relative viability ([1]; first compound 2.53 µM) | relative viability ([1]; first compound 8 µM) | relative viability ([2]; first compound 0.08 µM) | relative viability ([2]; first compound 0.253 µM) | relative viability ([2]; first compound 0.8 µM) | relative viability ([2]; first compound 2.53 µM) | relative viability ([3]; first compound 0.08 µM) | relative viability ([3]; first compound 0.253 µM) | relative viability ([3]; first compound 0.8 µM) | relative viability ([3]; first compound 2.53 µM) | relative viability ([3]; first compound 8 µM) | relative viability ([4]; first compound 0.08 µM) | relative viability ([4]; first compound 0.253 µM) | relative viability ([4]; first compound 0.8 µM) | relative viability ([4]; first compound 2.53 µM) |
| --- | --- | --- | --- | --- | --- | --- | --- | --- | --- | --- | --- | --- | --- | --- | --- | --- | --- | --- |
| SW 1573 | 0.836 | 0.864 | 0.884 | 0.916 | 0.837 | 0.673 | 0.781 | 0.781 | 0.853 | 0.812 | 0.875 | 0.951 | 0.834 | 0.721 | 0.277 | 0.193 | 0.165 | 0.242 |
| BEN | 0.503 | 0.611 | 0.668 | 0.646 | 0.634 | 0.795 | 0.751 | 0.953 | 0.592 | 0.609 | 0.999 | 0.93 | 1.21 | 0.822 | 0.539 | 0.558 | 0.534 | 0.517 |
| RERF-LC-KJ | 0.917 | 0.996 | 0.902 | 0.914 | 0.778 | 0.952 | 0.77 | 0.897 | 0.824 | 0.93 | 1.03 | 0.877 | 0.911 | 0.831 | 0.531 | 0.406 | 0.324 | 0.265 |
| UMC-11 | 0.809 | 0.855 | 1.15 | 1.19 | 0.858 | 1.02 | 0.932 | 1 | 0.723 | 0.834 | 0.738 | 1.11 | 1.24 | 0.875 | 0.221 | 0.192 | 0.159 | 0.165 |
| HOP-62 | 1.15 | 1.01 | 1.17 | 1.28 | 1 | 1.03 | 0.991 | 0.943 | 0.644 | 1.19 | 1.15 | 0.97 | 1.05 | 0.736 | 0.374 | 0.344 | 0.35 | 0.312 |
| NCI-H2023 | 0.838 | 0.939 | 0.763 | 0.903 | 0.76 | 0.612 | 0.614 | 0.627 | 0.625 | 0.671 | 0.713 | 0.591 | 0.605 | 0.592 | – | 0.373 | 0.244 | 0.188 |
| NCI-H596 | 1.01 | 0.783 | 0.79 | 1.03 | 0.824 | 1.09 | 1.05 | 1 | 1.09 | 0.967 | 1.17 | 1.13 | 1.1 | 0.733 | 0.977 | 1.08 | 0.983 | 0.859 |
| LOU-NH91 | 0.942 | 0.96 | 0.92 | 0.914 | 0.868 | – | 0.927 | 0.973 | 0.88 | 0.903 | 1.06 | 0.878 | 0.911 | 0.89 | 0.571 | 0.639 | 0.595 | 0.528 |
| COR-L23 | 0.966 | 1.08 | 1.13 | 1.07 | 0.909 | 0.726 | 0.854 | 0.897 | 0.543 | 0.703 | 0.816 | 1.02 | 0.99 | 0.747 | 0.207 | 0.193 | 0.162 | 0.121 |
| EPLC-272H | 0.613 | 0.813 | 0.772 | 0.708 | 0.524 | – | 0.894 | 1.21 | 0.772 | – | 1.46 | 1.23 | 1.24 | 0.888 | 0.354 | 0.192 | 0.333 | 0.317 |
| H3255 | 0.715 | 0.803 | 0.738 | 0.844 | 1.07 | 0.78 | 0.879 | 0.878 | 0.854 | 0.912 | 1.06 | 0.854 | 0.967 | 0.78 | 0.566 | 0.623 | 0.61 | 0.558 |
| NCI-H650 | 1.11 | 1.07 | 0.952 | 1.04 | 1.05 | – | 0.853 | 0.563 | 0.439 | 0.857 | 0.817 | 0.737 | 0.914 | 0.716 | 0.671 | 0.675 | 0.673 | 0.467 |
| NCI-H1944 | 0.88 | 0.863 | 0.987 | 0.935 | 0.904 | 0.976 | 1.11 | 1.1 | 0.895 | 1.19 | 1.18 | 1.09 | 1.14 | 1.19 | 0.245 | 0.246 | 0.221 | 0.23 |
| NCI-H23 | 0.906 | 1.04 | 1.19 | 1.05 | 0.896 | 0.476 | 0.625 | 0.59 | 0.514 | 0.614 | 0.58 | 0.679 | 0.603 | 0.402 | 0.399 | 0.321 | 0.393 | 0.254 |
| NCI-H358 | 0.672 | 0.558 | 0.697 | 0.624 | 0.53 | 0.513 | 0.782 | 0.808 | 0.763 | 0.868 | 0.742 | 0.69 | 0.914 | 0.595 | 0.0975 | 0.0893 | 0.107 | 0.0955 |
| HCC-366 | 1.03 | 0.974 | 0.949 | 0.992 | 0.959 | 0.454 | 0.67 | 0.478 | 0.454 | 0.819 | 0.786 | 0.795 | 0.657 | 0.451 | 0.241 | 0.0847 | 0.0896 | 0.0599 |
| NCI-H2405 | 1.05 | 1.04 | 1.01 | 1.01 | 0.983 | 0.515 | 0.93 | 1.05 | 1.1 | 0.972 | 1.05 | 0.956 | 0.831 | 0.848 | 0.693 | 0.752 | 0.677 | 0.731 |
| NCI-H441 | 1.07 | 1.15 | 1 | 1.27 | 0.976 | 0.478 | 0.62 | 0.624 | 0.396 | 0.583 | 0.748 | 0.617 | 0.746 | 0.552 | – | 0.69 | 0.561 | 0.474 |
